Key:
[1] = target: T1, 3-hydroxy-3-methylglutaryl-coenzyme A reductase (Homo sapiens, UniProt P04035); set-up: species or system Escherichia coli;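 note: enzyme inhibition assay of HMG-CoA reductase using radiolabeled [14C]HMG-CoA as substrate; in other assays of this panel Not Active means under 50% inhibition at 10 µM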
T1 sequence (P04035 whole entry): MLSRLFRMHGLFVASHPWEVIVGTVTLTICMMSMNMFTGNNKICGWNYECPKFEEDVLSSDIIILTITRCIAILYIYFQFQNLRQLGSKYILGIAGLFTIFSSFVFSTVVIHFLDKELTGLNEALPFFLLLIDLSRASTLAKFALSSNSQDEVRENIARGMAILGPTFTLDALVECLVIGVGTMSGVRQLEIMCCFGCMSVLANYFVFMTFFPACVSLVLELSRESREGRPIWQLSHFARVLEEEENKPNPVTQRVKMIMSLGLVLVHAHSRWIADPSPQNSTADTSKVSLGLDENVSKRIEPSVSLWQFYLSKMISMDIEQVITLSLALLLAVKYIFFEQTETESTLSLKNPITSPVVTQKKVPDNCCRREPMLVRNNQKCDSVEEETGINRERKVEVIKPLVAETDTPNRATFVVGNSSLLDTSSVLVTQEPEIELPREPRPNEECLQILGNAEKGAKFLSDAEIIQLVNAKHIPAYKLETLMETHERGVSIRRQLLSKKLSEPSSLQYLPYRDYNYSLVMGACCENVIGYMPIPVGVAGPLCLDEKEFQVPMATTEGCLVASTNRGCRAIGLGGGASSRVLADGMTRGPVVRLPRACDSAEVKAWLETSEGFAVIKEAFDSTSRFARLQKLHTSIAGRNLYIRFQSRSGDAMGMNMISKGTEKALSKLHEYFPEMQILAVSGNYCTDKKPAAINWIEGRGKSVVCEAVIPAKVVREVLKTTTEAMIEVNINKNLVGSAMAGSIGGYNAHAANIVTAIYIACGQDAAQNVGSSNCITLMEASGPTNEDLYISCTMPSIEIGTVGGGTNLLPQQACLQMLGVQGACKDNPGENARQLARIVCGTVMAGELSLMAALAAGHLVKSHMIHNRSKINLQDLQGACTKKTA

[2] = target: T2, Endothelin-1 receptor (Homo sapiens, UniProt P25101); assay type: cell membranes, CHO-K1, Membrane; conditions: cho-k1; note: in other assays of this panel Not Active means under 50% inhibition at 10 µM
T2 sequence (P25101 whole entry): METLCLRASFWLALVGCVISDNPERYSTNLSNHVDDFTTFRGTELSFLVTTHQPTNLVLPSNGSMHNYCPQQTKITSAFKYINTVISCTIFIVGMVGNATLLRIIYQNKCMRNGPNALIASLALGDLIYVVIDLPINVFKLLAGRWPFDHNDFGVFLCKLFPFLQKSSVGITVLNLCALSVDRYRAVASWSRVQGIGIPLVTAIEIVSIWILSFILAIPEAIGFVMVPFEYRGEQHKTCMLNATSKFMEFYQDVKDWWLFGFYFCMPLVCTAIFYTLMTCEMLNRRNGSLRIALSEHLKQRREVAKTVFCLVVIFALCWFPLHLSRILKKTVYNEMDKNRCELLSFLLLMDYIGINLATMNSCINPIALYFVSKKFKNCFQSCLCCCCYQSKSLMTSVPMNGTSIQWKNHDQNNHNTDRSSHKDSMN

[3] = target: Sigma non-opioid intracellular receptor 1 (Homo sapiens, UniProt Q99720); experiment: DRUGMATRIX: Sigma1 radioligand binding (ligand: [3H] Haloperidol); assay type: cell membranes, Jurkat, Membrane; conditions: jurkat; Not Active = under 50% inhibition at 10 µM
Sequence of Sigma non-opioid intracellular receptor 1 (Q99720 whole entry): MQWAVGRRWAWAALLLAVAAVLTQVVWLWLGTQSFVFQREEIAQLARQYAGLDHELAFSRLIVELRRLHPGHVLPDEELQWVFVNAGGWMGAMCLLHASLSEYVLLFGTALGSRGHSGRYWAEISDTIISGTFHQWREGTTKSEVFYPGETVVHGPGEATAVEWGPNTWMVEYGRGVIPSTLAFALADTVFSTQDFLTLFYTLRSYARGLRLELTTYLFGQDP

[4] = DRUGMATRIX: Sodium/nucleoside co-transporter radioligand binding (ligand: nitrobenzylthioinosine); assay type: cell membranes, Cavia porcellus, Dunkin-Hartley, Cerebral cortex, Membrane; conditions: Not Active = under 50% inhibition at 10 µM
[5] = target: T3, Caspase-1 (Homo sapiens, UniProt P29466); set-up: species or system Escherichia coli;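 note: Caspase-1 enzyme inhibition assay with a peptide substrate; in other assays of this panel Not Active means under 50% inhibition at 10 µM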
T3 sequence (P29466 whole entry): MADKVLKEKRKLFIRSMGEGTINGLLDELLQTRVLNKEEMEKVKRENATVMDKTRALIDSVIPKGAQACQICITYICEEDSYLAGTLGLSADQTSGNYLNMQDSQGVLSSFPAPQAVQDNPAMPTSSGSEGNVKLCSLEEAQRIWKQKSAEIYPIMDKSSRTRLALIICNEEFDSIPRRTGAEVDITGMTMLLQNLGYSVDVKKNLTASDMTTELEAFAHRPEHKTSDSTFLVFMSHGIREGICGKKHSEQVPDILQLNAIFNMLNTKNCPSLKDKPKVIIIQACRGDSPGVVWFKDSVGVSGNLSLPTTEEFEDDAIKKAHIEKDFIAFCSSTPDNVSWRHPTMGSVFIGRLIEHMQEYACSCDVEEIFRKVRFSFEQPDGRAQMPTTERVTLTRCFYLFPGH

[6] = DRUGMATRIX: Calcium Channel Type L, Phenylalkylamine radioligand binding (ligand: [3H] (-)-Desmethoxyverapamil (D-888)); assay type: cell membranes, Rattus norvegicus, Wistar, Brain, Membrane; conditions: Not Active = under 50% inhibition at 10 µM
[7] = target: T4, Cysteinyl leukotriene receptor 1 (Homo sapiens, UniProt Q9Y271); assay type: cell membranes, Membrane; conditions: cho-k1; note: in other assays of this panel Not Active means under 50% inhibition at 10 µM
T4 sequence (Q9Y271 whole entry): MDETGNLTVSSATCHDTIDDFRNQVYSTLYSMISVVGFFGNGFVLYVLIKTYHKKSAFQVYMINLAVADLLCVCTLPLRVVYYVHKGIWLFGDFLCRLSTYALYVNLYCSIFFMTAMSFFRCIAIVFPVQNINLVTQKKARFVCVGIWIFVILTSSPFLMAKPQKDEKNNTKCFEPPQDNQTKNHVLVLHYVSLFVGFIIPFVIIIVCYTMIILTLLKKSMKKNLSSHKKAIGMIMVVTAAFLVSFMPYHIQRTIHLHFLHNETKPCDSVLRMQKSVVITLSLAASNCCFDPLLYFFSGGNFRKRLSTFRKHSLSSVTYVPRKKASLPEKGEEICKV

CCOC(=O)[C@H](CCc1ccccc1)N[C@@H](C)C(=O)N1CCC[C@H]1C(=O)O
Not Active: IC50 [1] | IC50 [2] | IC50 [3] | IC50 [4] | Ki [4] | IC50 [5] | IC50 [6] | Ki [6] | IC50 [7]

C[C@@H]1CC[C@H]2[C@@H](C)C(=O)O[C@@H]3O[C@@]4(C)CC[C@@H]1[C@]32OO4 [ARTEMISININ]
Not Active: IC50 [1] | IC50 [2] | IC50 [3] | IC50 [4] | Ki [4] | IC50 [5] | IC50 [6] | Ki [6] | IC50 [7]

CN1C(=O)CN=C(c2ccccc2)c2cc(Cl)ccc21 [DIAZEPAM]
Not Active: IC50 [1] | IC50 [2] | IC50 [3] | IC50 [4] | Ki [4] | IC50 [5] | IC50 [6] | Ki [6] | IC50 [7]

Nn1nnc2ccccc21
Not Active: IC50 [1] | IC50 [2] | IC50 [3] | IC50 [4] | Ki [4] | IC50 [5] | IC50 [6] | Ki [6] | IC50 [7]

CC(C)(CO)C(O)C(=O)NCCCO (stereo unspecified) [PANTHENOL]
Not Active: IC50 [1] | IC50 [2] | IC50 [3] | IC50 [4] | Ki [4] | IC50 [5] | IC50 [6] | Ki [6] | IC50 [7]

O=C(O)Cc1ccc(-c2ccccc2)cc1 [FELBINAC]
Not Active: IC50 [1] | IC50 [2] | IC50 [3] | IC50 [4] | Ki [4] | IC50 [5] | IC50 [6] | Ki [6] | IC50 [7]

O=C(O)c1cccnc1 [NIACIN]
Not Active: IC50 [1] | IC50 [2] | IC50 [3] | IC50 [4] | Ki [4] | IC50 [5] | IC50 [6] | Ki [6] | IC50 [7]

C[C@H](C(=O)O)c1cccc(C(=O)c2ccccc2)c1 [DEXKETOPROFEN]
Not Active: IC50 [1] | IC50 [2] | IC50 [3] | IC50 [4] | Ki [4] | IC50 [5] | IC50 [6] | Ki [6] | IC50 [7]

CC[C@H]1OC(=O)[C@H](C)[C@@H](O[C@H]2C[C@@](C)(OC)[C@@H](O)[C@H](C)O2)[C@H](C)[C@@H](O[C@@H]2O[C@H](C)C[C@H](N(C)C)[C@H]2O)[C@](C)(OC)C[C@@H](C)C(=O)[C@H](C)[C@@H](O)[C@]1(C)O [CLARITHROMYCIN]
Not Active: IC50 [1] | IC50 [2] | IC50 [3] | IC50 [4] | Ki [4] | IC50 [5] | IC50 [6] | Ki [6] | IC50 [7]
